{"source": "patent US20240335466A1", "about": "“NICOTINAMIDE MONONUCLEOTIDE DERIVATIVES FOR USE IN THE TREATMENT OF SAPHO SYNDROME” (NUVAMID SA, priority 2021, published 2024)", "key": {"[1]": {"system": "patient suffering from SAPHO syndrome", "test": "Case report: oral NMN in a patient with SAPHO syndrome, BASFI self-assessment questionnaire", "assay_type": "in vivo, human", "conditions": "one patient", "description": "(§1) This case report investigated the effects of nicotinamide mononucleotide derivatives according to the invention in a patient suffering from SAPHO syndrome. Especially, the effects of nicotinamide mononucleotide (NMN), i.e. compound 001, were investigated. NMN was orally administered at a dose of 500 mg/day, once a day in the morning, for 12 months. The patient reported that SAPHO syndrome manifested with osteitis in the upper right chest area managed with NSAIDs. At the start of the treatment, the patient reported strong pain and swelling (7.5/10) in joints affected by the disease. The patient also suffered from fatigue. In the absence of SAPHO syndrome specific questionnaire, efficacy of the treatment was assessed using self-assessment questionnaires: the Bath Ankylosing Spondylitis Disease Activity Index (BASDAI) which is the gold standard for measuring and following disease activity in Ankylosing Spondylitis, and the Bath Ankylosing Spondylitis Functional Index (BAFSI) for measuring and monitoring functional ability in patients with ankylosing spondylitis. […] Evaluation was performed before start of the treatment, and after 12 months of treatment."}, "[2]": {"system": "patient suffering from SAPHO syndrome", "test": "Case report: oral NMN in a patient with SAPHO syndrome, BASDAI self-assessment questionnaire", "assay_type": "in vivo, human", "conditions": "one patient", "description": "as §1"}}, "data": [{"smiles": "NC(=O)c1ccc[n+]([C@@H]2O[C@H](COP(=O)([O-])O)[C@@H](O)[C@H]2O)c1", "note": "[NMN, nicotinamide mononucleotide]", "values": [{"measurement": "BASFI score after NMN", "setting": "[1]; 500 mg/day oral once a day, after 12 months, before NMN: 2.4", "value": 2.1}, {"measurement": "BASFI item: physically demanding activities, score", "setting": "[1]; 500 mg/day oral, after one year treatment, before treatment 7/10", "value": "4.5 /10"}, {"measurement": "BASDAI score after NMN", "setting": "[2]; 500 mg/day oral once a day, after 12 months, before NMN: 5.4, scores of 4 or greater suggest suboptimal control of disease", "value": 3}, {"measurement": "effect on fatigue, pain and swelling of the joints and discomfort (BASDAI items)", "setting": "[2]; 500 mg/day oral, 12 months, before: pain and swelling 7.5/10, fatigue 6.5/10, discomfort 6.5/10", "value": "significantly improved fatigue, pain and swelling of the joints and discomfort"}]}]}
